The text below walks through data of article PMC4774894 (Journal of natural products, 2015).

Each structure is given as a SMILES string.

The test system of the test is HIV-1 NL4-3. Conditions: for selectivity index CC50/EC50: CC50 (MT4 cells) / EC50 (HIV-1 NL4-3 in MT4); for selectivity index (SI) (bound or span stated in text for a group of compounds): bound or span over the group named.

As for `C=C(C)[C@@]12O[C@@]3(/C=C/C=C/CCCCCCCCC)O[C@@H]1[C@@H]1[C@@H]4O[C@]4(CO)[C@@H](O)[C@]4(O)C(=O)C(C)=C[C@H]4[C@@]1(O3)[C@H](C)[C@H]2OC(C)=O` [Compound 13, wikstroelide A], the “selectivity index CC50/EC50” value is given as ≥1300. `C=C(C)[C@]12C[C@@H](COC(=O)c3ccccc3)[C@]34OC5(CCCCCCC[C@H](C)[C@@H]6[C@@H]3[C@]3(O[C@]6(C)OC3=O)[C@H](O)[C@@]3(COC(=O)CCCCCCC/C=C\C/C=C\CCCCC)O[C@H]3[C@H]4[C@H]1O5)O2` [Compound 2, Stelleralide E]: the “selectivity index CC50/EC50” value was ≥1 and the “selectivity index (SI) (bound or span stated in text for a group of compounds)” value was < 50.

In the case of `C=C(C)[C@@]12OC3(/C=C/C=C/CCCCCCCCCC)O[C@@H]1[C@@H]1[C@@H]4O[C@]4(CO)[C@@H](O)[C@]4(O)C(=O)C(C)=C[C@H]4[C@@]1(O3)[C@H](C)[C@H]2O` [Compound 6, Stelleralide I], the “selectivity index CC50/EC50” value is on record as ≥135.

As to `C=C(C)[C@]12C[C@@H](C)[C@@]34O[C@](CCCCCCCCC)(O[C@@H]1[C@@H]3[C@@H]1O[C@]1(CO)[C@@H](O)[C@]1(O)C(=O)C(C)=C[C@H]14)O2` [Compound 19, simplexin], the “selectivity index CC50/EC50” value was ≥400. Still for that read-out and setting: the result for `C=C(C)[C@@]1(O)[C@H](OC(=O)/C=C/C=C/CCCCCCCCC)[C@@H]2[C@@H]3O[C@]3(CO)[C@@H](O)[C@]3(O)C(=O)C(C)=C[C@H]3[C@@]2(O)[C@H](C)[C@H]1OC(C)=O` [Compound 18, wikstroelide J] reads ≥345. Same read-out and setting: the result for `C=C(C)[C@]12C[C@@H](COC(=O)c3ccccc3)[C@@]34OC5(CCCCCCC[C@@H](C)[C@H]6[C@H](C)C(=O)[C@@](O)([C@H](O)[C@@]7(CO)O[C@H]7[C@H]3[C@H]1O5)[C@@H]64)O2` [Compound 12, wikstroelide F] reads ≥318. In the case of `C=C(C)[C@]12C[C@@H](COC(C)=O)[C@@]34OC5(O[C@@H]1[C@@H]3[C@@H]1O[C@]1(CO)[C@@H](O)[C@@]1(O)[C@H]4[C@H]([C@H](C)[C@@H]1OC(=O)c1ccccc1)[C@H](C)C[C@@H](OC(=O)c1ccccc1)CCCC[C@H]5O)O2` [Compound 3, Stelleralide F], the “selectivity index CC50/EC50” value was ≥12903 and the “selectivity index (SI) (bound or span stated in text for a group of compounds)” value is on record as “more than 10 000”. As to `C=C(C)[C@]12C[C@@H](C)[C@@]34OC(/C=C/C=C/CCCCCCCCCC)(O[C@@H]1[C@@H]3[C@@H]1O[C@]1(CO)[C@@H](O)[C@]1(O)C(=O)C(C)=C[C@H]14)O2` [Compound 15, wikstrotoxin A], the “selectivity index CC50/EC50” value is on record as ≥1284.

In the case of `C=C(C)[C@]12C[C@@H](COC(=O)c3ccccc3)[C@@]34OC5(O[C@@H]1[C@@H]3[C@@H]1O[C@]1(CO)[C@@H](O)[C@@]1(O)[C@H]4[C@H]([C@H](C)[C@@H]1OC(=O)c1ccccc1)[C@H](C)CCCCCC[C@H]5O)O2` [Compound 10, gnidimacrin], the “selectivity index CC50/EC50” value was ≥21500 and the “selectivity index (SI) (bound or span stated in text for a group of compounds)” value is listed as “more than 10 000”. For the compound `C=C(C)[C@]12C[C@@H](C)[C@@]34OC5(CCCCCCC[C@@H](C)[C@H]6[C@H](C)[C@H](OC(=O)c7ccccc7)[C@@](O)([C@H](O)[C@@]7(CO)O[C@H]7[C@H]3[C@H]1O5)[C@@H]64)O2` [Compound 11, pimelea factor P2], the “selectivity index CC50/EC50” value was ≥14272 and the “selectivity index (SI) (bound or span stated in text for a group of compounds)” value is on record as “more than 10 000”. In the same order, the values of `C=C(C)[C@]12C[C@@H](COC(=O)c3ccccc3)[C@@]34OC5(O[C@@H]1[C@@H]3[C@@H]1O[C@]1(COC(=O)c1ccccc1)[C@@H](O)[C@@]1(O)[C@H]4[C@H]([C@H](C)[C@@H]1O)[C@H](C)CCCCCC[C@H]5O)O2` [Compound 5, Stelleralide H] are ≥13163 and “more than 10 000”. Take `C=C(C)[C@]12C[C@@H](C)[C@]34O[C@]5(CCCCCCC[C@H](C)[C@@H]6[C@@H]3[C@]3(O[C@]6(C)OC3=O)[C@H](O)[C@@]3(CO)O[C@H]3[C@H]4[C@H]1O5)O2` [Compound 9, pimelotide A]: the “selectivity index CC50/EC50” value is ≥16 and the “selectivity index (SI) (bound or span stated in text for a group of compounds)” value is on record as < 50. Turning to `C=C(C)[C@]12C[C@@H](COC(=O)c3ccccc3)[C@@]34OC5(O[C@@H]1[C@@H]3[C@@H]1O[C@]1(CO)[C@@H](O)[C@@]1(O)[C@H]4[C@H]([C@H](C)[C@@H]1OC(=O)c1ccccc1)[C@H](C)C[C@@H](OC(=O)c1ccccc1)CCCC[C@H]5O)O2` [Compound 4, Stelleralide G], the “selectivity index CC50/EC50” value is ≥15342 and the “selectivity index (SI) (bound or span stated in text for a group of compounds)” value is “more than 10 000”. With `C=C(C)[C@]12C[C@@H](C)[C@@]34O[C@](/C=C/C=C/CCCCCCCCC)(O[C@@H]1[C@@H]3[C@@H]1O[C@]1(CO)[C@@H](O)[C@]1(O)C(=O)C(C)=C[C@H]14)O2` [Compound 16, huratoxin], the “selectivity index CC50/EC50” value is given as ≥5384. With `C=C(C)[C@@]12OC3(/C=C/C=C/CCCCCCCCCC)O[C@@H]1[C@@H]1[C@@H]4O[C@]4(CO)[C@@H](O)[C@]4(O)C(=O)C(C)=C[C@H]4[C@@]1(O3)[C@H](C)[C@H]2OC(C)=O` [Compound 14, wikstroelide B], the “selectivity index CC50/EC50” value is listed as ≥392. Consider `C=C(C)[C@]1(O)C[C@@H](C)[C@@]2(O)[C@H]([C@H]1OC(=O)/C=C/C=C/CCCCCCCCC)[C@H](O)[C@@](O)(CO)[C@@H](O)[C@]1(O)C(=O)C(C)=C[C@H]12` [Compound 7, Stelleralide J], for which the “selectivity index CC50/EC50” value is reported as ≥100. Turning to `C=C(C)[C@]12C[C@@H](COC(=O)c3ccccc3)[C@]34OC5(CCCCCCC[C@H](C)[C@@H]6[C@@H]3[C@]3(O[C@]6(C)OC3=O)[C@H](O)[C@@]3(CO)O[C@H]3[C@H]4[C@H]1O5)O2` [Compound 8, stelleralide C], the “selectivity index CC50/EC50” value is ≥41 and the “selectivity index (SI) (bound or span stated in text for a group of compounds)” value was < 50. For the compound `C=C(C)[C@]12C[C@@H](COC(=O)c3ccccc3)[C@]34OC5(CCCCCCC[C@H](C)[C@@H]6[C@@H]3[C@]3(O[C@]6(C)OC3=O)[C@H](O)[C@@]3(COC(=O)CCCCCCCCCCCCCCC)O[C@H]3[C@H]4[C@H]1O5)O2` [Compound 1, Stelleralide D], the “selectivity index CC50/EC50” value was ≥18 and the “selectivity index (SI) (bound or span stated in text for a group of compounds)” value is < 50. With `C=C(C)[C@]1(O)C[C@@H](C)[C@@]2(O)[C@H]([C@H]1OC(=O)/C=C/C=C/CCCCCCCCC)[C@@H]1O[C@]1(CO)[C@@H](O)[C@]1(O)C(=O)C(C)=C[C@H]12` [Compound 17, wikstroelide M], the “selectivity index CC50/EC50” value is ≥281.
